Source: patent US11208412B2 (DAEGU-GYEONGBUK MEDICAL INNOVATION FOUNDATION, priority 2017, dated 2021)

What was measured:
Assay in all cases: Kinase selectivity, DiscoverX scanMAX Kinase assay panel (% control)
Assay type in all cases: binding
[1] = molecular target: T1, kinases of the scanMAX Kinase assay panel (Homo sapiens, UniProt P00519, M351T); details: ABL1(M351T)-phosphorylated; 1 uM
T1 construct: purchased DiscoverX Co. (contract measurement) scanMAX Kinase assay panel
Method in brief: (§1)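 A 1 uM DMSO solution of compound was applied across the panel kinases, and results were expressed as % control relative to DMSO (100%) and a positive control (0%).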

[2] = molecular target: T2, kinases of the scanMAX Kinase assay panel (Homo sapiens, UniProt O15146); details: MUSK; 1 uM
T2 construct: purchased DiscoverX Co. (contract measurement) scanMAX Kinase assay panel
T2 sequence (O15146 24-869): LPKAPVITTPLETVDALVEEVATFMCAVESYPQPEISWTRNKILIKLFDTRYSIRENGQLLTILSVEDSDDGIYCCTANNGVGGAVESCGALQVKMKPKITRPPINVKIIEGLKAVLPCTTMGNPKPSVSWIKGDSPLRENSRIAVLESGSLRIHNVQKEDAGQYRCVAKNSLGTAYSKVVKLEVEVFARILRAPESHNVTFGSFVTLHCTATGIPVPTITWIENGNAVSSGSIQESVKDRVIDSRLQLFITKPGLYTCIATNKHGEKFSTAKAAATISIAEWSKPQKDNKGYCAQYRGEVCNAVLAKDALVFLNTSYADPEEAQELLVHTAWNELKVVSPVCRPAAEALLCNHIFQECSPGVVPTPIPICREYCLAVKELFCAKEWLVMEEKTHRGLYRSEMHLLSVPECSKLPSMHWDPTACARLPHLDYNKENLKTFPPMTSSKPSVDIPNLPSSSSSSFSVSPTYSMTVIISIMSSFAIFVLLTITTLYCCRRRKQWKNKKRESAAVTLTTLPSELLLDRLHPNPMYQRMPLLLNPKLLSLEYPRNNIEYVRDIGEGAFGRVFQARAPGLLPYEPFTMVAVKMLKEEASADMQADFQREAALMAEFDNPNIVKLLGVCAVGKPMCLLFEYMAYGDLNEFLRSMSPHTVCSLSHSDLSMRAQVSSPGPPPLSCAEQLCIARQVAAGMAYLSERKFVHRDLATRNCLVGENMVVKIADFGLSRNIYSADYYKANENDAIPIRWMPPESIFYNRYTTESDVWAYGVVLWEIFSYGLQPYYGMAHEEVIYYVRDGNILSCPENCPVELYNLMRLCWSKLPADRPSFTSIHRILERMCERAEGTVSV
Method in brief: as §1

[3] = molecular target: T3, kinases of the scanMAX Kinase assay panel (Homo sapiens, UniProt O00444); details: PLK4; 1 uM
T3 construct: purchased DiscoverX Co. (contract measurement) scanMAX Kinase assay panel
T3 sequence (O00444 1-970): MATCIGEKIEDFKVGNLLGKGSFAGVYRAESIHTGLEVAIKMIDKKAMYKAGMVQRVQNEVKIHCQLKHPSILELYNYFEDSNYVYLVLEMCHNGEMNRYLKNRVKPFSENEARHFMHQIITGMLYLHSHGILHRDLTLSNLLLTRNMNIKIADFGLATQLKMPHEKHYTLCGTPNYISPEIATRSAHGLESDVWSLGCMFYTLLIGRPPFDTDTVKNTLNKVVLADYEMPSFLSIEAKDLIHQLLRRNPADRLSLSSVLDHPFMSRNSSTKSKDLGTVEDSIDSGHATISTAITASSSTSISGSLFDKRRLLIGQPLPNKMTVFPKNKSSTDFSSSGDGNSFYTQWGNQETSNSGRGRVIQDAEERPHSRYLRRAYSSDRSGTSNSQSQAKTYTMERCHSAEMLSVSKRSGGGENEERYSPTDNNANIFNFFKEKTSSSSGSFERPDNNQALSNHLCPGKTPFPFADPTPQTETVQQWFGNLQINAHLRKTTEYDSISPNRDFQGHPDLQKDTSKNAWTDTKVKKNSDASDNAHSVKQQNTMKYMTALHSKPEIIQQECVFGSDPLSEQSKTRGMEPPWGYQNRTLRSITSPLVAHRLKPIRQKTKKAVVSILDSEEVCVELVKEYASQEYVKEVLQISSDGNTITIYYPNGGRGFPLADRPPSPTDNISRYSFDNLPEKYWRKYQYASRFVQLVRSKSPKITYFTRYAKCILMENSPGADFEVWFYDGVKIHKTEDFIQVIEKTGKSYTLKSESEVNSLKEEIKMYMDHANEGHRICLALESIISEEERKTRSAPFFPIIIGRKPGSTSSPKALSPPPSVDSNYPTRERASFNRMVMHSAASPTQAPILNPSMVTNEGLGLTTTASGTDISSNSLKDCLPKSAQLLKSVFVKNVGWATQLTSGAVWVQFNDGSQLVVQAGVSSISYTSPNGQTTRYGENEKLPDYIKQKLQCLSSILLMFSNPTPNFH
Method in brief: as §1

Work on `CNc1nc(Nc2ccc(C(=O)N3CCOCC3)cc2OC)nc2[nH]cc(C#N)c12` [Example 1, 2-((2-methoxy-4-(morpholine-4-carbonyl)phenyl)amino)-4-(methylamino)-7H-pyrrolo[2,3-d]pyrimidine-5-carbonitrile] yielded a remaining binding at 1 µM [1] of 62%, a remaining binding at 1 µM [2] of 97% and a remaining binding at 1 µM [3] of 17%.

With `CC1(Nc2nc(Nc3cnn([C@H]4CCN(C5COC5)C[C@@H]4F)c3Cl)nc3[nH]cc(C#N)c23)CC1` [Example 52, 2-((5-chloro-1-((3S,4S)-3-fluoro-1-(oxetane-3-yl)piperidine-4-yl)-1H-pyrazole-4-yl)amino)((1-methylcyclopropyl)amino)-7H-pyrrolo[2,3-d]pyrimidine-5-carbonitrile] the remaining binding at 1 µM [1] was 2.6%, the remaining binding at 1 µM [2] was 100% and the remaining binding at 1 µM [3] was 0%.

Compound `CCNc1nc(Nc2ccc(C(=O)N3CCC(N4CCOCC4)CC3)cc2OC)nc2[nH]cc(C(F)(F)F)c12` [Example 104, (4-((4-(ethylamino)-5-(trifluoromethyl)-7H-pyrrolo[2,3-d]pyrimidine-2-yl)amino)-3-methoxyphenyl)(4-morpholinopiperidine-1-yl)methanone] has a remaining binding at 1 µM [1] of 100%, a remaining binding at 1 µM [2] of 94% and a remaining binding at 1 µM [3] of 1.7%.
